Converted amounts (≈) assume the structure as drawn. Blank lines part the entries; values can stand above or below the compound they belong to.
Legend:
Format in all cases: cell-based
[1] = system: MRSA (ATCC 33591); assay: Broth microdilution MIC, MRSA ATCC 33591; conditions: Staphylococcus aureus; Tables 2-4; standardized conditions
Procedure: General information—Biological Assays. Methicillin-resistant and methicillin sensitive Staphylococcus aureus (MRSA and MSSA respectively) strains were obtained from the Laboratory of Professor Christian Melander (NCSU) (ATCC BAA 44 and 33591) and Dr. Jessica Gilbertie (ATCC 25923). Bacteria were kept in frozen stocks on glycerol at −80° C. until use. Bacteria was streaked onto tryptic-soy agar for colony isolation. Mueller-Hinton broth (MHB, 211443-BD), tryptic soy broth (TSB, Remel: R455052) and D-glucose (CAS: 492-62-6) were purchased from Fisher Scientific. Tryptic soy agar (TSA, cat. #22091) and Linezolid (cat. #P70014) were purchased from Sigma-Aldrich. Bacteria for biofilm inhibition were cultured overnight in TSB-G (tryptic soy broth with 0.5% glucose supplement) in 96 well plates. All assays were run in duplicate and repeated at least two separate times for MIC assays and at least three separate times for biofilm inhibition. All compounds were dissolved in molecular biology grade DMSO as 10 mM stock solutions. Optical densities were measured using a Thermo Scientific Genesys 20 spectrophotometer. Data for biofilm inhibition were collected using a BioTek ELx808 Microplate Reader. All graphs were generated and analyzed using GraphPad Prism 7.
Broth microdilution method for determination of minimum inhibitory concentrations. As prescribed by the Clinical and Laboratory Standards Institute (CLSI) M07-A8, Vol. 29 (2) MSSA (ATCC 25923) and MRSA (ATCC BAA 44 and 33591) was grown in MHB for 6-8 h; this culture was used to inoculate fresh MHB (5×10^5 CFU/mL). The resulting bacterial suspension was aliquoted (1 mL) into 1.5 mL Eppendorf tubes and compound was added from a 10 mM DMSO stock to achieve the desired initial starting concentration (typically 128 μg/mL). Linezolid (from a 10 mM DMSO stock) was used as a positive control. Inoculated media not treated with compound served as the negative control. The MIC was determined by microbroth dilution following the CLSI guidelines. The MIC was defined as the lowest concentration of antibiotic with no visible growth. The plate was sealed and incubated under stationary conditions at 37° C.
The antimicrobial activity of Compounds 1-15 was assessed initially against MSSA (ATCC 25923) and MRSA (ATCC 33591) strains. It was observed that almost all these compounds precipitated in aqueous solution at concentrations equal or higher than 8-16 μg/mL. In order to obtain preliminary results on the antimicrobial activity for these compounds, the standard conditions of the antimicrobial assays used where modified to favor the water solubility of these compounds.

[2] = system: MSSA (ATCC 25923); assay: Broth microdilution MIC, MSSA ATCC 25923; conditions: Staphylococcus aureus; Tables 2-4; standardized conditions; read-out: MIC (S. aureus 25923)
[3] = system: S. aureus 29213; assay: Broth microdilution MIC, S. aureus 29213; conditions: Staphylococcus aureus, Tables 3-4, standardized conditions, read-out: MIC (S. aureus 29213)

Compound: O=C1C(O)=C(c2ccc(C(F)(F)F)cc2)C([C@@H](O)c2ccccc2)N1c1ccc(Br)cc1 (stereo partly drawn) [Compound 48, 1-(4-Bromophenyl)-3-hydroxy-5-((S)-hydroxy(phenyl)methyl)-4-(4-(trifluoromethyl)phenyl)-1,5-dihydro-2H-pyrrol-2-one]
MIC [1]: 32 µg/mL (≈ 63.5 µM) | MIC [2]: 32 to 64 µg/mL (≈ 63.5 to 127 µM) | MIC [3]: 16 µg/mL (≈ 31.7 µM)

Compound: O=C1C(O)=C(c2ccc(C(F)(F)F)cc2)C([C@H](O)c2ccccc2)N1c1ccccc1 (stereo partly drawn) [Compound 51, 3-Hydroxy-5-((R)-hydroxy(phenyl)methyl)-1-phenyl-4-(4-(trifluoromethyl)phenyl)-1,5-dihydro-2H-pyrrol-2-one]
MIC [1]: 32 µg/mL (≈ 75.2 µM) | MIC [2]: 64 µg/mL (≈ 150 µM) | MIC [3]: 32 µg/mL (≈ 75.2 µM)

Compound: COc1ccc(N2C(=O)C(O)=C(c3ccc(C(F)(F)F)cc3)C2[C@H](O)c2ccccc2)cc1 (stereo partly drawn) [Compound 52, 3-Hydroxy-5-((R)-hydroxy(phenyl)methyl)-1-(4-methoxyphenyl)-4-(4-(trifluoromethyl)phenyl)-1,5-dihydro-2H-pyrrol-2-one]
MIC [1]: > 128 µg/mL | MIC [2]: > 128 µg/mL | MIC [3]: > 128 µg/mL

Compound: O=C1C(O)=C(c2ccc(C(F)(F)F)cc2)C([C@H](O)c2ccccc2)N1c1ccc(F)cc1 (stereo partly drawn) [Compound 53, 1-(4-Fluorophenyl)-3-hydroxy-5-((R)-hydroxy(phenyl)methyl)-4-(4-(trifluoromethyl)phenyl)-1,5-dihydro-2H-pyrrol-2-one]
MIC [1]: 128 µg/mL (≈ 289 µM) | MIC [2]: 16 µg/mL (≈ 36.1 µM) | MIC [3]: 128 µg/mL (≈ 289 µM)

Compound: O=C1C(O)=C(c2ccc(C(F)(F)F)cc2)C([C@H](O)c2ccccc2)N1c1ccc(Cl)cc1 (stereo partly drawn) [Compound 54, 1-(4-Chlorophenyl)-3-hydroxy-5-((R)-hydroxy(phenyl)methyl)-4-(4-(trifluoromethyl)phenyl)-1,5-dihydro-2H-pyrrol-2-one]
MIC [1]: 4 to 8 µg/mL (≈ 8.7 to 17.4 µM) | MIC [2]: 4 µg/mL (≈ 8.7 µM) | MIC [3]: 4 µg/mL (≈ 8.7 µM)

Compound: O=C1C(O)=C(c2ccc(C(F)(F)F)cc2)C([C@H](O)c2ccccc2)N1c1ccc(C(F)(F)F)cc1 (stereo partly drawn) [Compound 56, 3-Hydroxy-5-((R)-hydroxy(phenyl)methyl)-1,4-bis(4-(trifluoromethyl)phenyl)-1,5-dihydro-2H-pyrrol-2-one]
MIC [1]: 2 µg/mL (≈ 4.05 µM) | MIC [2]: 2 µg/mL (≈ 4.05 µM) | MIC [3]: 2 µg/mL (≈ 4.05 µM)

Now from value to compound:

MIC [1]: > 128 µg/mL | MIC [2]: > 128 µg/mL | MIC [3]: > 128 µg/mL
Compound: O=C1C(O)=C(c2ccc(C(F)(F)F)cc2)C(Cc2ccccc2)N1c1ccc(Br)cc1 (stereo not drawn) [Compound 46, 5-Benzyl-1-(4-bromophenyl)-3-hydroxy-4-(4-(trifluoromethyl)phenyl)-1,5-dihydro-2H-pyrrol-2-one]

MIC [1]: > 128 µg/mL | MIC [2]: > 128 µg/mL | MIC [3]: > 128 µg/mL
Compound: O=C1C(O)=C(c2ccc(C(F)(F)F)cc2)C(C(O)CO)N1c1ccc(Br)cc1 (stereo not drawn) [Compound 49, 1-(4-Bromophenyl)-5-(1,2-dihydroxyethyl)-3-hydroxy-4-(4-(trifluoromethyl)phenyl)-1,5-dihydro-2H-pyrrol-2-one]

MIC [1]: > 128 µg/mL | MIC [2]: > 128 µg/mL | MIC [3]: > 128 µg/mL
Compound: CCCCCCN1C(=O)C(O)=C(c2ccc(C(F)(F)F)cc2)C1[C@H](O)c1ccccc1 (stereo partly drawn) [Compound 50, 1-Hexyl-3-hydroxy-5-((R)-hydroxy(phenyl)methyl)-4-(4-(trifluoromethyl)phenyl)-1,5-dihydro-2H-pyrrol-2-one]

MIC [1]: 4 µg/mL (≈ 7.26 µM) | MIC [2]: 2 to 4 µg/mL (≈ 3.63 to 7.26 µM) | MIC [3]: 2 µg/mL (≈ 3.63 µM)
Compound: O=C1C(O)=C(c2ccc(C(F)(F)F)cc2)C([C@H](O)c2ccccc2)N1c1ccc(I)cc1 (stereo partly drawn) [Compound 55, 3-Hydroxy-5-((R)-hydroxy(phenyl)methyl)-1-(4-iodophenyl)-4-(4-(trifluoromethyl)phenyl)-1,5-dihydro-2H-pyrrol-2-one]

— patent US20250326718A1, “4-PHENYL-2-PYRROLIDINONES AND METHODS OF USING THEREOF” (North Carolina State University, priority 2022, published 2025)
